Earlier results, collected in patent publication US20110269740A1, “JAK KINASE MODULATING COMPOUNDS AND METHODS OF USE THEREOF” (Ambit Biosciences Corporation, priority 2008, published 2011).
Read-outs that look alike come from different tables or passages of the source.

Tests used:
transplant rejection [1] = details: murine heterotopic heart transplant model, orally available
transplant rejection [2] = details: non-human primate renal transplant model, orally available
[3] = test system: prostate cancer cell DU145
[4] = test system: CML cell lines such as 32Dp210 and K562, as well as mouse Bcr-Abl+32D cells; details: CML cell lines 32Dp210, K562, mouse Bcr-Abl+32D
[5] = test system: BCR-Abl+BaF3 cells which carried the Abl T315I mutation; details: imatinib-resistant

Row | Compound | prevention of transplant rejection (transplant rejection [1]) | prevention of transplant rejection (transplant rejection [2]) | apoptosis [3] | downstream effect on c-Myc [4] | apoptosis [5]
1 | C[C@@H]1CCN(C(=O)CC#N)C[C@@H]1N(C)c1ncnc2[nH]ccc12 [CP-690550] | efficacy in preventing transplant rejection | efficacy in preventing transplant rejection | – | – | –
2 | N#C/C(=C/c1ccc(O)c(O)c1)C(=O)NCc1ccccc1 [AG490] | – | – | induced apoptosis | reduction of c-Myc | induce apoptosis
